# Laboratory results published in patent EP4640052A1 (BASF SE, priority 2024, dated 2025).
# Values joined by “and” are separate entries in the source; they are usually repeats but may differ in a detail not shown here. Identical values can stand only once. Like-named read-outs stand apart in the source and are kept apart here.
# Legend:
# [1] = test system: Pyricularia oryzae (PYRIOR); experiment: microbe, parasite or virus in culture; assay type: cell-based; conditions: for inhibition of growth at 0.016 ppm / inhibition of growth at 0.063 ppm: Pyricularia oryzae, 168 h, read-out: Observed efficacy; for Observed efficacy: single active
# [2] = test system: Septoria tritici (SEPTTR); experiment: microbe, parasite or virus in culture; assay type: cell-based; conditions: for inhibition of growth at 0.063 ppm / inhibition of growth at 0.25 ppm / inhibition of growth at 1 ppm: Zymoseptoria tritici, 168 h, read-out: Observed efficacy
# [3] = test system: Blumeria graminis f. sp. tritici; conditions: in vivo
# Phakopsora pachyrhizi [4] = experiment: Green house use example 13: curative control of soybean rust on soybeans (PHAKPA F129L K4); assay type: in vivo
# [5] = test system: Puccinia triticina (syn. P. recondita); experiment: Green house use example 9: curative control of brown rust on wheat (PUCCRT K4); assay type: in vivo
# [6] = test system: Sclerotinia sclerotiorum (SCLESC); experiment: microbe, parasite or virus in culture; assay type: cell-based
# [7] = test system: Pyrenophora teres (PYRNTE), Qol resistant (F129L); experiment: microbe, parasite or virus in culture; assay type: cell-based
# [8] = test system: Alternaria solani (ALTESO); experiment: microbe, parasite or virus in culture; assay type: cell-based; conditions: Alternaria solani, 168 h, read-out: Observed efficacy
# Phakopsora pachyrhizi [9] = experiment: Green house use example 14: protective control of soybean rust on soybeans (PHAKPA F129L P2); assay type: in vivo; conditions: single compound, 0.5 ppm
# Phakopsora pachyrhizi [10] = conditions: in vivo
# [11] = test system: Cercospora sojina (CERCSO); assay type: cell-based
# Monilinia sp. (MONISP) = experiment: microbe, parasite or virus in culture; assay type: cell-based; conditions: Monilinia, 168 h, read-out: Observed efficacy
# [12] = test system: Puccinia triticina (syn. P. recondita); experiment: Green house use example 10: preventative control of brown rust on wheat (PUCCRT P10); assay type: in vivo; conditions: wheat, sprayed 10 days before inoculation; single active, 1 ppm
# [13] = test system: Blumeria graminis f. sp. tritici; experiment: Green house use example 11: control of powdery mildew on wheat, sprayed 2 days after inoculation (ERYSGT K2); assay type: in vivo; conditions: G143A strain, single active
# [14] = test system: Corynespora cassiicola (CORYCA), Qol resistant (G143A); SDHI resistant (N75S in SdHC); assay type: cell-based
# [15] = Trial 1, single compound, 4 ppm
# [16] = Trial 3, single compound, 4 ppm
# [17] = Trial 1, single compound, 1 ppm
# [18] = Trial 2, single compound, 1 ppm
# [19] = Sclerotinia sclerotiorum, 168 h, read-out: Observed efficacy
# [20] = Pyrenophora teres, 168 h, read-out: Observed efficacy
Compound,inhibition of growth at 0.016 ppm [1],inhibition of growth at 0.063 ppm [1],inhibition of growth at 0.063 ppm [2],inhibition of growth at 0.25 ppm [2],Observed efficacy [3],Observed efficacy (Phakopsora pachyrhizi [4]; [15]),Observed efficacy (Phakopsora pachyrhizi [4]; [16]),"Observed efficacy [5, 17]","Observed efficacy [5, 15]","Observed efficacy [5, 18]","inhibition of growth at 0.063 ppm [6, 19]","inhibition of growth at 0.016 ppm [7, 20]","inhibition of growth at 0.063 ppm [7, 20]","inhibition of growth at 0.25 ppm [7, 20]",inhibition of growth at 0.016 ppm [8],inhibition of growth at 0.063 ppm [8],Observed efficacy (Phakopsora pachyrhizi [9]),Observed efficacy (Phakopsora pachyrhizi [10]),Observed efficacy [11],inhibition of growth at 0.063 ppm (Monilinia sp. (MONISP)),further results
"CO/C=C(/C(=O)OC)c1cccc(Cl)c1CO/N=C(\COC)c1ccccc1 [I.1, Methyl-(E)-2-[3-chloro-2-[[(Z)-(2-methoxy-1-phenyl-ethylidene)amino]oxymethyl]-phenyl]-3-methoxy-prop-2-enoate]",25%,64%,0%,45%,0,37,71,3,58,0,2%,14%,48%,72%,12%,29%,80,61,,,
"CO/C=C(/C(=O)OC)c1cccc(C)c1CO/N=C(\COC)c1ccc(F)cc1F [I.7, Methyl (E)-2-[2-[[(Z)-[1-(2,4-difluorophenyl)-2-methoxy-ethylidene]amino]oxymethyl]-3-methyl-phenyl]-3-methoxy-prop-2-enoate]",27%,66%,0%,55%,,41,74,9,67,,2%,19%,46%,76%,2%,32%,85,,2% and 0%,45%,"inhibition of growth at 0.016 ppm [6, 19]: 3%; inhibition of growth at 0.25 ppm [6, 19]: 20%; inhibition of growth at 0.004 ppm [8]: 8%; Observed efficacy [12]: 19"
"CO/C=C(/C(=O)OC)c1cccc(Cl)c1CO/N=C(\COC)c1c(F)cc(F)cc1F [I.9, Methyl-(E)-2-[3-chloro-2-[[(Z)-[2-methoxy-1-(2,4,6-trifluorophenyl)ethylidene]-amino]oxymethyl]phenyl]-3-methoxy-prop-2-enoate]",,32%,0%,6%,,12,3,,,0,11%,7%,44%,74%,,3%,59,60,,42%,"inhibition of growth at 0.001 ppm (Monilinia sp. (MONISP)): 17%; inhibition of growth at 0.25 ppm (Monilinia sp. (MONISP)): 76%; inhibition of growth at 1 ppm [2]: 60%; Observed efficacy ([5]; Trial 2, single compound, 2 ppm): 0; inhibition of growth at 1 ppm [6, 19]: 50%; inhibition of growth at 0.004 ppm [8]: 1%"
"CC(Cc1ccc(C(C)(C)C)cc1)CN1C[C@@H](C)O[C@@H](C)C1 (stereo partly shown) [fenpropimorph, reference compound]",0%,,0%,0%,16,8,,,,,,,,,,,,0,3%,,"inhibition of growth at 0.016 ppm (Monilinia sp. (MONISP)): 2%; inhibition of growth at 1 ppm [2]: 44%; Observed efficacy (Phakopsora pachyrhizi [4]; Trial 1, single compound, 12 ppm): 13; Observed efficacy (Phakopsora pachyrhizi [4]; Trial 2, single compound, 4 ppm): 6; Observed efficacy (Phakopsora pachyrhizi [4]; Trial 2, single compound, 16 ppm): 11; inhibition of growth at 1 ppm [6, 19]: 39%; inhibition of growth at 4 ppm [6, 19]: 65%; Observed efficacy ([13]; 16 ppm): 32; Observed efficacy ([13]; 63 ppm): 35; inhibition of growth at 1 ppm [7, 20]: 33%; inhibition of growth at 0.25 ppm [8]: 18%; inhibition of growth at 1 ppm [8]: 61%"
"COc1ccnc(C(=O)N[C@@H](C)C(=O)O[C@@H](C)C(c2ccc(F)cc2)c2ccc(F)cc2)c1OC(C)=O [florylpicoxamid, reference compound]",,,,,,,,,,,,,,,,,,,16%,,Observed efficacy ([1]; 0.016 ppm): 66%; Observed efficacy [14]: 13%; Observed efficacy [7]: 39 and 21
"Cc1nc2c(F)c(F)ccc2cc1Oc1cccc(F)c1C(C)(C)O [ipflufenoquin, reference compound]",,,,,,,,,,,,,,,,,,,,,Observed efficacy ([1]; 0.004 ppm): 12%; Observed efficacy ([1]; 0.016 ppm): 15%; Observed efficacy ([1]; 0.063 ppm): 12%; Observed efficacy [2]: 48 and 41 and 26; Observed efficacy [6]: 4 and 3; Observed efficacy [14]: 11%
